According to patent US20070248646A1, “Use of azurocidin inhibitors in prevention and treatment of ocular vascular leakage” (priority 2006, published 2007):

Experiments:
[1] = tested on: retinal vascular leakage in diabetic retinopathy; assay: Retinal vascular leakage in streptozotocin-induced diabetic retinopathy; assay type: in vivo, Long-Evans rats; settings: two weeks after streptozotocin-induced diabetes; aprotinin 50,000 KIU, systemic
Description: After an overnight fast, Long-Evans rats (Charles River, Wilmington, Mass.), weighing 200-250 g, received single 60 mg/kg intraperitoneal injections of streptozotocin (Sigma, St. Louis, Mo.) in 10 mM citrate buffer (pH 4.5). Control nondiabetic animals received citrate buffer alone. Animals with blood glucose levels greater than 250 mg/dl 24 hours after the streptozotocin injections were considered diabetic. The rats were fed standard laboratory chow and allowed free access to water. Before each experiment, the diabetic state was reconfirmed to be 250 mg/dl or higher.
Asterisks indicate statistical significance.

[2] = tested on: retinal leukostasis in EIU; assay: Retinal leukostasis in Endotoxin-Induced-Uveitis (ConA staining); assay type: in vivo, Lewis rats; settings: 24 hours post EIU induction; aprotinin 50,000KIU at 0, 8, 16 hours; EIU 106.6±6.5, normal 17±1.2; n=6
Description: (§1) EIU was induced in Lewis rats via footpad injection of 100 μl (1 mg/ml) lipopolysaccharide (LPS). Control animals received an equal volume of saline. The experiments were conducted 24 hours after LPS injection. At this time point, several experimental parameters were assessed.
(§2) To block AZ, animals received 5 ml of aprotinin (Trasylol®; 50,000KIU). The first injection was given at the same time as the footpad injection, followed by a second injection 8 hours later and a third injection 16 hours later. The control animals received and equal amounts of vehicle control. LPS was purchased in lyophilized form from Sigma (#L6511).
Under deep anesthesia, a rat's chest cavity was opened, and its left ventricle was cannulated to allow perfusion (Ishida (2003) supra). The rat's right atrium was opened to achieve outflow. […] The eyes were enucleated, and the retinas were dissected and flatmounted in a water-based fluorescence anti-fading medium (Fluoromount; Southern Biotechnology, Birmingham, Ala.) and imaged by fluorescence microscopy (Leica, FITC filter). […] Leukocytes in arteries, veins, and capillaries of each retinal tissue were counted, and the total number of adherent leukocytes per retina was calculated. […]

[3] = tested on: intravitreal leukocyte accumulation in EIU; assay: Intravitreal leukocyte accumulation in Endotoxin-Induced-Uveitis; assay type: in vivo, Lewis rats; settings: 24 hours post LPS-injection; aprotinin 50,000KIU at 0, 8, 16 hours; EIU 343.6±11.7
Description: as §1, §2
To assess leukocyte extravasations into the vitreal cavity during EIU, histological slides of the whole eyes of treated rats were generated and the number of leukocytes in the vitreous cavity of these sections was counted. To do so, whole eyes were placed in 4% paraformaldehyde for fixation. Gradual infiltration of graded alcohols was followed by xylene and finally by liquid paraffin. Paraffin submerged eyes were then cooled to harden. Six-micron sections were cut on a Leica microtome and placed on slides. Sections were stained with hematoxylin and eosin and coverslipped.

## aprotinin
[1]
  vascular leakage (normalized BRB leakage): comparable to that of normal animals
[2]
  retinal leukostasis (firmly adhering leukocytes per retina): 32.4±2.9 cells
[3]
  number of leukocytes found intravitreally: 119.2±8.4
